According to publication PMC8286840, “Identifying SARS-CoV-2 antiviral compounds by screening for small molecule inhibitors of Nsp3 papain-like protease” (Biochemical Journal, 2021):
Structures can show the parent of a compound that is named as a salt. Where two headings read alike, the source gives them in different places.

Tests used:
[1] = molecular target: T1, SARS-CoV-2 PLpro (nsp3 1564–1878) (Severe acute respiratory syndrome coronavirus 2, UniProt P0DTD1); assay: biochemical; set-up: FRET-quenched peptide (Pro3) cleavage by PLpro, 10 min pre-incubation, slope over 20 min, normalised to no-compound control; details: low concentration screen, read-out: % of control remaining
[2] = molecular target: T1, SARS-CoV-2 PLpro (nsp3 1564–1878); assay: biochemical; set-up: FRET-quenched peptide (Pro3) cleavage by PLpro, 10 min pre-incubation, slope over 20 min, normalised to no-compound control; details: high concentration screen, read-out: % of control remaining

CN([C@@H](Cc1ccc(OS(=O)(=O)c2cccc3cnccc23)cc1)C(=O)N1CCN(c2ccccc2)CC1)S(=O)(=O)c1cccc2cnccc12 [KN-62] showed a remaining activity at 1.25 µM ([1]; Well no.=670) of 97.4%, a remaining activity at 1.25 µM ([1]; Well no.=2308) of 99.3% and a remaining activity at 3.75 µM ([2]; Well no.=670) of 95.8%. For the same compound, the remaining activity at 3.75 µM ([2]; Well no.=2308) was 99%.
Work on CCCCC[C@H](CC(=O)NO)C(=O)N[C@H](C(=O)N1CCC[C@H]1CO)C(C)C [Actinonin] yielded a remaining activity at 1.25 µM ([1]; Well no.=21) of 97.8% and a remaining activity at 3.75 µM ([2]; Well no.=21) of 97.8%.
Compound NC(=O)c1cnccn1 [Pyrazinecarboxamide] has a remaining activity at 1.25 µM ([1]; Well no.=1395) of 101% and a remaining activity at 3.75 µM ([2]; Well no.=1395) of 99.2%.
Work on NS(=O)(=O)c1ccccc1 [Benzenesulfonamide] yielded a remaining activity at 1.25 µM ([1]; Well no.=8398) of 97.6% and a remaining activity at 3.75 µM ([2]; Well no.=8398) of 101%.
OB1OCc2cc(F)ccc21 [5-fluoro-2,1-benzoxaborol-1(3H)-ol] showed a remaining activity at 1.25 µM ([1]; Well no.=5477) of 103% and a remaining activity at 3.75 µM ([2]; Well no.=5477) of 109%.
With C[C@]12C=CC(=O)C=C1CC[C@@H]1C2=CC[C@]2(C)[C@@H](C(=O)CN3CCN(c4cc(N5CCCC5)nc(N5CCCC5)n4)CC3)CC[C@@H]12 [U74389G maleate] the remaining activity at 1.25 µM ([1]; Well no.=3905) was 103% and the remaining activity at 3.75 µM ([2]; Well no.=3905) was 98.2%.
For Cc1cc(CN2CCN(c3c(Br)cnc4nc(-c5ccc(N6CCN(C)CC6)cc5)[nH]c34)CC2)no1 [CCT137690], the remaining activity at 1.25 µM ([1]; Well no.=5033) was 98% and the remaining activity at 3.75 µM ([2]; Well no.=5033) was 99.3%.
Compound CCc1cc(/C(C)=N/OCc2ccc(C3CCCCC3)c(C(F)(F)F)c2)ccc1CN1CC(C(=O)O)C1 [Siponimod] has a remaining activity at 1.25 µM ([1]; Well no.=6669) of 97.7% and a remaining activity at 3.75 µM ([2]; Well no.=6669) of 93.3%.
NS(=O)(=O)c1ccc(N=Nc2c(O)[nH]c3ccc(Br)cc23)cc1 [Cdk2 Inhibitor II] was tested, and the remaining activity at 1.25 µM ([1]; Well no.=2383) was 102% and the remaining activity at 3.75 µM ([2]; Well no.=2383) was 103%.
O=C(O)C1=CCCNC1 [Guvacine hydrochloride] showed a remaining activity at 1.25 µM ([1]; Well no.=460) of 99.2% and a remaining activity at 3.75 µM ([2]; Well no.=460) of 99.6%.
With CCCC/C=C\CCCCCCCCC(=O)O [10(Z)-Pentadecenoic acid] the remaining activity at 1.25 µM ([1]; Well no.=4542) was 89.2% and the remaining activity at 3.75 µM ([2]; Well no.=4542) was 97.8%.
With NC(N)=NCCC[C@H](NC(=O)COCC(c1ccccc1)c1ccccc1)C(=O)O [SB290157 (trifluoroacetate)] the remaining activity at 1.25 µM ([1]; Well no.=8404) was 94.2% and the remaining activity at 3.75 µM ([2]; Well no.=8404) was 92.8%.
In the case of Cc1cc(F)c(Nc2ncnc3cc(OCc4ccccc4)ccc23)cc1O [ZM 323881 hydrochloride - 5-((7-Benzyloxyquinazolin-4-yl)amino)-4-fluoro-2-methylphenol hydrochloride], the remaining activity at 1.25 µM ([1]; Well no.=2538) was 91.5% and the remaining activity at 3.75 µM ([2]; Well no.=2538) was 92%.
Compound Cc1nc2c([nH]1)c(=O)n(C)c(=O)n2Cc1ccco1 [Furafylline] has a remaining activity at 1.25 µM ([1]; Well no.=665) of 95.4%, a remaining activity at 1.25 µM ([1]; Well no.=1544) of 97.6% and a remaining activity at 3.75 µM ([2]; Well no.=665) of 92.2%. The remaining activity at 3.75 µM ([2]; Well no.=1544) was 100%.
COc1ccc2cc3[n+](cc2c1OC)CCc1cc2c(cc1-3)OCO2 was tested, and the remaining activity at 1.25 µM ([1]; Well no.=3515) was 93.4% and the remaining activity at 3.75 µM ([2]; Well no.=3515) was 92.9%.
With CC[C@@H]1C(=O)OC[C@@H]1Cc1cncn1C [(+)-Pilocarpine hydrochloride] the remaining activity at 1.25 µM ([1]; Well no.=1102) was 96.5% and the remaining activity at 3.75 µM ([2]; Well no.=1102) was 96.8%.
CC(C)c1nn(-c2c(Cl)cccc2Cl)c2nc(Cc3ccc(OCCO)cc3)[nH]c(=O)c12 [Cdk/Crk Inhibitor] gave a remaining activity at 1.25 µM ([1]; Well no.=2420) of 105% and a remaining activity at 3.75 µM ([2]; Well no.=2420) of 105%.
With C[C@@]1(O)[C@H](O)[C@@H](CO)O[C@H]1n1ccc(N)nc1=O [NM107] the remaining activity at 1.25 µM ([1]; Well no.=8897) was 99.5% and the remaining activity at 3.75 µM ([2]; Well no.=8897) was 100%.
For CN1[C@@H]2CC[C@H]1C[C@@H](OC(c1ccccc1)c1ccccc1N)C2 (stereo partly drawn) [Aminobenztropine], the remaining activity at 1.25 µM ([1]; Well no.=206) was 97.2% and the remaining activity at 3.75 µM ([2]; Well no.=206) was 98.3%.
With CCCCCCCCCCC/C=C\C(C)(C)/C=C\CCCC(=O)O [7,7-Dimethyleicosadienoic acid] the remaining activity at 1.25 µM ([1]; Well no.=4313) was 101%, the remaining activity at 1.25 µM ([1]; Well no.=4412) was 100% and the remaining activity at 3.75 µM ([2]; Well no.=4313) was 99.2%. It also gave a remaining activity at 3.75 µM ([2]; Well no.=4412) of 101%.
CN1CCN(c2cccc(Nc3nc4c(-c5ccc(S(C)(=O)=O)cc5)cccn4n3)c2)CC1 [CEP33779] was tested, and the remaining activity at 1.25 µM ([1]; Well no.=5129) was 104% and the remaining activity at 3.75 µM ([2]; Well no.=5129) was 106%.
Compound C[C@H](NC(=O)Cc1cc(F)cc(F)c1)C(=O)N[C@@H]1C(=O)N(C)c2ccccc2-c2ccccc21 [YO-01027] has a remaining activity at 1.25 µM ([1]; Well no.=4687) of 101% and a remaining activity at 3.75 µM ([2]; Well no.=4687) of 105%.
Work on Cc1nc2cccc(N)c2c(=O)n1C1CCC(=O)NC1=O (stereo not drawn) [Avadomide] yielded a remaining activity at 1.25 µM ([1]; Well no.=6870) of 99.6% and a remaining activity at 3.75 µM ([2]; Well no.=6870) of 95.9%.
CC(C)C[C@H](NP(=O)(O)O[C@@H]1O[C@@H](C)[C@H](O)[C@@H](O)[C@H]1O)C(=O)N[C@@H](Cc1c[nH]c2ccccc12)C(=O)O [Phosphoramidon disodium] showed a remaining activity at 1.25 µM ([1]; Well no.=1398) of 99.4% and a remaining activity at 3.75 µM ([2]; Well no.=1398) of 100%.
For O=C(O)c1cc(O)c2ccc(Cl)cc2n1 [7-Chlorokynurenic acid], the remaining activity at 1.25 µM ([1]; Well no.=581) was 104% and the remaining activity at 3.75 µM ([2]; Well no.=581) was 103%.
With O=C(c1cc2cc(O)ccc2[nH]1)c1cc2cc(O)ccc2[nH]1 [Flt-3 Inhibitor II] the remaining activity at 1.25 µM ([1]; Well no.=2409) was 109% and the remaining activity at 3.75 µM ([2]; Well no.=2409) was 110%.
CC(C)NCC(O)COc1ccc(CCOCC2CC2)cc1 (stereo not drawn) [Betaxolol (hydrochloride)] showed a remaining activity at 1.25 µM ([1]; Well no.=6849) of 107% and a remaining activity at 3.75 µM ([2]; Well no.=6849) of 102%.
Nc1nc(F)nc2c1ncn2[C@@H]1O[C@H](CO)[C@@H](O)[C@@H]1O [Fludarabine] gave a remaining activity at 1.25 µM ([1]; Well no.=7962) of 89.2% and a remaining activity at 3.75 µM ([2]; Well no.=7962) of 88.2%.
Compound Cc1ccc(Cl)c(Nc2ccccc2C(=O)O)c1Cl [Meclofenamic acid sodium] has a remaining activity at 1.25 µM ([1]; Well no.=784) of 103% and a remaining activity at 3.75 µM ([2]; Well no.=784) of 103%.
For NC(Cc1ccc(O)c(O)c1)C(=O)O (racemic) [DL-Dopa], the remaining activity at 1.25 µM ([1]; Well no.=6391) was 106% and the remaining activity at 3.75 µM ([2]; Well no.=6391) was 107%.
Compound CO[C@H]1C[C@@H]2CC[C@@H](C)[C@@](O)(O2)C(=O)C(=O)N2CCCC[C@H]2C(=O)O[C@H]([C@H](C)C[C@@H]2CC[C@@H](OCCO)[C@H](OC)C2)CC(=O)[C@H](C)/C=C(\C)[C@@H](O)[C@@H](OC)C(=O)[C@H](C)C[C@H](C)/C=C/C=C/C=C/1C [Everolimus] has a remaining activity at 1.25 µM ([1]; Well no.=8740) of 90.8% and a remaining activity at 3.75 µM ([2]; Well no.=8740) of 87.3%.
With CC(C)(C)NCC(O)c1cc(O)cc(O)c1 (stereo not drawn) [Terbutaline (sulfate)] the remaining activity at 1.25 µM ([1]; Well no.=6709) was 106% and the remaining activity at 3.75 µM ([2]; Well no.=6709) was 106%.
Work on CC(C)NCC(O)COc1ccc(CC(N)=O)cc1 (racemic) yielded a remaining activity at 1.25 µM ([1]; Well no.=196) of 96.7% and a remaining activity at 3.75 µM ([2]; Well no.=196) of 99.1%.
